Here are results for twelve compounds from ChEMBL document CHEMBL5291721, “A preclinical secondary pharmacology resource illuminates target-adverse drug reaction associations of marketed drugs” (Nat Commun, 2023).

Experiment [1] addresses T1, Glucocorticoid receptor (Homo sapiens, UniProt P04150).
T1 sequence (P04150 whole entry): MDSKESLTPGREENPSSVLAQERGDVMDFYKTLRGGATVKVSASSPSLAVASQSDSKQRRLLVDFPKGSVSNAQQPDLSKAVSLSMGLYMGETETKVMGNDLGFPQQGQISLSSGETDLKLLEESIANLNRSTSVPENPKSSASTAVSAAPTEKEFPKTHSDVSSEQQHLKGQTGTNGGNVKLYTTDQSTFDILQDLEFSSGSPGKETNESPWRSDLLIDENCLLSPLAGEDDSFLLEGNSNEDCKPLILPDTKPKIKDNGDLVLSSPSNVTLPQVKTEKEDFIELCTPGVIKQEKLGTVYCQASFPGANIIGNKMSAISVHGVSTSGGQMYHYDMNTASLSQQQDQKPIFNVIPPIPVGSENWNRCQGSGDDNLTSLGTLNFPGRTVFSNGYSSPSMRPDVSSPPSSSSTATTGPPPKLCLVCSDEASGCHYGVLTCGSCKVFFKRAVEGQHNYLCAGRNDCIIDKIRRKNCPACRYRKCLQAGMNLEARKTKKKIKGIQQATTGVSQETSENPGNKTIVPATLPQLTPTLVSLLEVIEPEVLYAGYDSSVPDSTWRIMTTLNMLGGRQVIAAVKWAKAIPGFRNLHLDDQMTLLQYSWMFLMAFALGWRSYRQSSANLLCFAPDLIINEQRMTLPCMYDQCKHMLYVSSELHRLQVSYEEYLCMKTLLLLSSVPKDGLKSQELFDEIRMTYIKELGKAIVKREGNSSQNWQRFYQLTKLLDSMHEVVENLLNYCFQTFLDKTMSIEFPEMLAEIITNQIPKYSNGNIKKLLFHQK
The class given is functional.

Experiment [2] deals with T1, Glucocorticoid receptor. The class given is functional. This is another data set of the same source.
The target in experiment [3] is T2, Peroxisome proliferator-activated receptor gamma (Homo sapiens, UniProt P37231).
T2 sequence (P37231 whole entry): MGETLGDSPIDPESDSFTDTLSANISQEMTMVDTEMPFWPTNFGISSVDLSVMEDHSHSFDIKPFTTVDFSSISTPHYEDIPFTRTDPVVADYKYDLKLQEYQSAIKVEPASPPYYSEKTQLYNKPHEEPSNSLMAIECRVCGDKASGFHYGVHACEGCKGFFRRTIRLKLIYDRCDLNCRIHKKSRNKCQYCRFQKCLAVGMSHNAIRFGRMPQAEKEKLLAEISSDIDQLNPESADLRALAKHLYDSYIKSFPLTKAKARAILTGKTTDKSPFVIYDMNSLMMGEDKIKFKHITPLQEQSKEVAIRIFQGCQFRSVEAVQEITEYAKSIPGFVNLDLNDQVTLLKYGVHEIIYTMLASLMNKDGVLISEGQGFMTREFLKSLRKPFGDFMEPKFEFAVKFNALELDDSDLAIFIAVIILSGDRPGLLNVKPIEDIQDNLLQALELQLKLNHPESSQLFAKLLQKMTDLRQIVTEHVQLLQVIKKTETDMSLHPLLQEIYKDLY
The experiment is classed as functional.

In experiment [4] the target is T3, Gastric inhibitory polypeptide receptor (Homo sapiens, UniProt P48546).
T3 sequence (P48546 whole entry): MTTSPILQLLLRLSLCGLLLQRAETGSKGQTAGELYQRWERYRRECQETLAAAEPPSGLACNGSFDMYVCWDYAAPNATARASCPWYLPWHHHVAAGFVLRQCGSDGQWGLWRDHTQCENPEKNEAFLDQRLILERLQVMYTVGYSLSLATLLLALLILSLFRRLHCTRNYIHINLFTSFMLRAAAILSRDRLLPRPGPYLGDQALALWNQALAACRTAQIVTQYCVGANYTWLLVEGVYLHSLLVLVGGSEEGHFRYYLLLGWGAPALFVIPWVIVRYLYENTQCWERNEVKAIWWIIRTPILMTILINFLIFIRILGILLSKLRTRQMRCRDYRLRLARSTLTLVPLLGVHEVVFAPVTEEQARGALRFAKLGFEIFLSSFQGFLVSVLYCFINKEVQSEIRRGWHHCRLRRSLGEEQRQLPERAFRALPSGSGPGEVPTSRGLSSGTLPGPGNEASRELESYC

Experiment [5] deals with T4, Alpha-2A adrenergic receptor (Homo sapiens, UniProt P08913).
T4 sequence (P08913 whole entry): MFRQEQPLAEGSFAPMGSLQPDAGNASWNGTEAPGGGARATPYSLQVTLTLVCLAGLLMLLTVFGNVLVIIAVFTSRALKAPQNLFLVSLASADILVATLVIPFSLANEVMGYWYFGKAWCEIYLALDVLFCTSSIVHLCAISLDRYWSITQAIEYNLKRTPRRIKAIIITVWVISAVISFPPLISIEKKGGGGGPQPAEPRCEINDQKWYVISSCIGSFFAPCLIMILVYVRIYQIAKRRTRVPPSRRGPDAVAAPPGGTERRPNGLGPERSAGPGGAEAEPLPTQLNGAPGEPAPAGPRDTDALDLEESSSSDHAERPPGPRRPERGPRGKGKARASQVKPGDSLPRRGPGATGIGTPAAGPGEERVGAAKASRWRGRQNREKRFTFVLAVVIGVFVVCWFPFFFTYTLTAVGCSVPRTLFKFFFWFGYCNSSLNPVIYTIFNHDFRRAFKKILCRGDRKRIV

In a further experiment the target is D(1A) dopamine receptor (Homo sapiens, UniProt P21728).
The target in experiment [6] is T5, Muscarinic acetylcholine receptor M1 (Homo sapiens, UniProt P11229).
T5 sequence (P11229 whole entry): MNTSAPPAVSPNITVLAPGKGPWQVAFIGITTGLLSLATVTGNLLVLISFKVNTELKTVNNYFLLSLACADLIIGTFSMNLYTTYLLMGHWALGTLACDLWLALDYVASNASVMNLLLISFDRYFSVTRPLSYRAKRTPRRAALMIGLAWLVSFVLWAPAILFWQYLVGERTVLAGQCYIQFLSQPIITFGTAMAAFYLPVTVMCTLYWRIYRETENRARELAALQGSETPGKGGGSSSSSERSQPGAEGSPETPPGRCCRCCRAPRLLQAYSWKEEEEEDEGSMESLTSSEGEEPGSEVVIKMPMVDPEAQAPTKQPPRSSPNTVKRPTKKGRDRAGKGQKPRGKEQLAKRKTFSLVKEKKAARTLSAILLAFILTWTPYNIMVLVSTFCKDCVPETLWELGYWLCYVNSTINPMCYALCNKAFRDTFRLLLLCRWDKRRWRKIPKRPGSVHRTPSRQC
The class given is functional, cell-based.
Further: assay procedure not described here.

D(1A) dopamine receptor, sequence (P21728 whole entry): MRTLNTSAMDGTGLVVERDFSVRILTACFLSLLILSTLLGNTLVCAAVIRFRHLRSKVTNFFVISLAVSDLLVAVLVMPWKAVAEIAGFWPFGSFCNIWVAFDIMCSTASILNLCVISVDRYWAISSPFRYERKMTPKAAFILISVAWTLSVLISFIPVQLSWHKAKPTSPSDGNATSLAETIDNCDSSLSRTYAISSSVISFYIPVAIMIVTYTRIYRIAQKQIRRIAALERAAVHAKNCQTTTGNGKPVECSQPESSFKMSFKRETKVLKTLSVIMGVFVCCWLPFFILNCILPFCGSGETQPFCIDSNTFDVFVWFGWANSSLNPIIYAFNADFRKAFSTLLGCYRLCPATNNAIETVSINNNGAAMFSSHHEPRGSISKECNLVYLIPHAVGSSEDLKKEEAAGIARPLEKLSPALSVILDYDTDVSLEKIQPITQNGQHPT

Take `CO/N=C(\C(=O)N[C@@H]1C(=O)N2C(C(=O)[O-])=C(C[N+]3(C)CCCC3)CS[C@H]12)c1csc(N)n1`: the values for the concentration at half-maximal activity (AC50) (on Glucocorticoid receptor [1]; at Glucocorticoid receptor [2]; in experiment [3]) were > 300 µM, > 300 µM and 200 µM, respectively.
Consider `CC(=O)c1ccc2c(c1)N(CCCN1CCN(CCO)CC1)c1ccccc1S2` [ACETOPHENAZINE], for which the half-maximal activity concentration (AC50) (on Glucocorticoid receptor [1]; at Glucocorticoid receptor [2]; in experiment [3]) was > 30 µM in each case.
`CC(N)Cc1ccccc1` (configuration not stated) [AMPHETAMINE]: the AC50 (at Glucocorticoid receptor [1]; at Glucocorticoid receptor [2]; in experiment [4]; in experiment [3]) was > 30 µM in each case.
As for `CN1CCCC(n2nc(Cc3ccc(Cl)cc3)c3ccccc3c2=O)CC1` (configuration not stated) [AZELASTINE], the AC50 (at Glucocorticoid receptor [1]; on Glucocorticoid receptor [2]; in experiment [3]) was > 30 µM in each case.
For `C#C[C@]1(O)CC[C@H]2[C@@H]3CCc4cc(O)ccc4[C@H]3CC[C@@]21C` [ETHINYL ESTRADIOL], the AC50 in experiment [5] is > 10 µM; at Glucocorticoid receptor [1], > 30 µM; at D(1A) dopamine receptor, > 10 µM; on Glucocorticoid receptor [2], > 30 µM; in experiment [4], > 30 µM.
As for `COc1ccc2c(c1)C(=O)N(CCc1ccc(S(=O)(=O)NC(=O)NC3CCCCC3)cc1)C(=O)C2(C)C` [GLIQUIDONE], the AC50 is > 30 µM on Glucocorticoid receptor [1] and 8.9 µM on Glucocorticoid receptor [2].
Turning to `CC(C)Cc1ccc(CC(=O)O)cc1` [IBUFENAC], the concentration at half-maximal activity (AC50) (at Glucocorticoid receptor [1]; on Glucocorticoid receptor [2]; in experiment [3]) was > 30 µM each time.
On to `CC(C)NNC(=O)c1ccncc1` [IPRONIAZID], for which the AC50 (on Glucocorticoid receptor [1]; at Glucocorticoid receptor [2]; in experiment [3]) was > 30 µM in each case.
For `CC[C@H](C)C(=O)O[C@H]1C[C@H](O)C=C2C=C[C@H](C)[C@H](CC[C@@H](O)C[C@@H](O)CC(=O)O)[C@H]21` [PRAVASTATIN], the AC50 (at Glucocorticoid receptor [1]; on Glucocorticoid receptor [2]; in experiment [3]) was > 30 µM each time.
Consider `O=C(NC[C@H]1CN(c2ccc(N3CCOCC3=O)cc2)C(=O)O1)c1ccc(Cl)s1` [RIVAROXABAN], for which the AC50 (at Glucocorticoid receptor [1]; in experiment [6]; on Glucocorticoid receptor [2]) was > 30 µM each time.
Regarding `Cc1ccc(C(=O)c2cc(O)c(O)c([N+](=O)[O-])c2)cc1` [TOLCAPONE], the values for the AC50 at Glucocorticoid receptor [1] and on Glucocorticoid receptor [2] were 14 µM and > 30 µM, respectively.
Regarding `OCc1cc([C@@H](O)CNCCCCCCOCCOCc2c(Cl)cccc2Cl)ccc1O` [VILANTEROL], the half-maximal activity concentration (AC50) (at Glucocorticoid receptor [1]; at Glucocorticoid receptor [2]; in experiment [3]) was > 30 µM throughout.
